Laboratory results from patent publication US10167262B2, “Herbicidal substituted 3-arylpyrazoles” (FMC CORPORATION, priority 2014, dated 2019).

Legend:
Assay in all cases: Test E pre-/postemergence greenhouse test, plant response rating 0-100
Type in all cases: in vivo
[1] = system: field bindweed (Convolvulus arvensis); conditions: Postemergence, scale 0 to 100
Outline: (§1)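 Seeds sown in silt loam were treated preemergence, and seedlings in peat-based potting medium were treated postemergence at the 1- to 4-leaf stage (2-18 cm tall). Test chemicals were formulated in a non-phytotoxic solvent mixture with surfactant. After 14-21 days in the greenhouse, injury was rated visually against untreated controls (0 = no effect, 100 = complete control).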

[2] = system: sandbur (southern sandbur, Cenchrus echinatus); conditions: Postemergence, scale 0 to 100
Outline: as §1

corn (Zea mays) = conditions: Postemergence, scale 0 to 100
Outline: as §1

[3] = system: arrowleaf sida (Sida rhombifolia); conditions: Postemergence
Outline: as §1

[4] = system: waterhemp (common waterhemp, Amaranthus rudis); conditions: Postemergence, scale 0 to 100
Outline: as §1

[5] = system: palmer pigweed (Amaranthus palmeri); conditions: Postemergence, scale 0 to 100
Outline: as §1

[6] = system: Italian ryegrass (Lolium multiflorum); conditions: Postemergence, scale 0 to 100
Outline: as §1

[7] = system: barnyardgrass (Echinochloa crus-galli); conditions: Postemergence, scale 0 to 100
Outline: as §1

[8] = system: Brazilian crabgrass (Digitaria horizontalis); conditions: Postemergence, scale 0 to 100
Outline: as §1

[9] = system: wild poinsettia (Euphorbia heterophylla); conditions: Postemergence, scale 0 to 100
Outline: as §1

[10] = system: hairy beggarticks (Bidens pilosa); conditions: Postemergence, scale 0 to 100
Outline: as §1

[11] = system: dayflower (Virginia (VA) dayflower, Commelina virginica); conditions: Postemergence, scale 0 to 100
Outline: as §1

With `Fc1cccc(NN=C(c2ccccc2)c2c[nH]nc2-c2cc(Cl)cc(Cl)c2)c1` [Compound 58] the “Plant response rating, Field Bindweed” value ([1]; 31 g ai/ha) was 0, the “Plant response rating, Field Bindweed” value ([1]; 62 g ai/ha) was 0 and the “Plant response rating, Field Bindweed” value ([1]; 125 g ai/ha) was 0. The “Plant response rating, Field Bindweed” value ([1]; 250 g ai/ha) was 0, the “Plant response rating, Field Bindweed” value ([1]; 500 g ai/ha) was 10 and the “Plant response rating, Sandbur” value ([2]; 31 g ai/ha) was 0. For the same molecule, the “Plant response rating, Sandbur” value ([2]; 62 g ai/ha) was 0, the “Plant response rating, Sandbur” value ([2]; 125 g ai/ha) was 0 and the “Plant response rating, Sandbur” value ([2]; 250 g ai/ha) was 0. The “Plant response rating, Sandbur” value ([2]; 500 g ai/ha) was 0, the “Plant response rating, Corn” value (corn (Zea mays); 31 g ai/ha) was 0 and the “Plant response rating, Corn” value (corn (Zea mays); 62 g ai/ha) was 0. For the same molecule, the “Plant response rating, Corn” value (corn (Zea mays); 125 g ai/ha) was 0, the “Plant response rating, Corn” value (corn (Zea mays); 250 g ai/ha) was 0 and the “Plant response rating, Corn” value (corn (Zea mays); 500 g ai/ha) was 0. For the same molecule, the “Plant response rating, Arrowleaf Sida” value ([3]; 31 g ai/ha, scale 0 to 100) was 50, the “Plant response rating, Arrowleaf Sida” value ([3]; 62 g ai/ha, scale 0 to 100) was 50 and the “Plant response rating, Arrowleaf Sida” value ([3]; 125 g ai/ha, scale 0 to 100) was 60. The “Plant response rating, Arrowleaf Sida” value ([3]; 250 g ai/ha, scale 0 to 100) was 75, the “Plant response rating, Arrowleaf Sida” value ([3]; 500 g ai/ha, scale 0 to 100 (0 no effect, 100 complete control)) was 80 and the “Plant response rating, Waterhemp” value ([4]; 31 g ai/ha) was 80. The “Plant response rating, Waterhemp” value ([4]; 62 g ai/ha) was 90, the “Plant response rating, Waterhemp” value ([4]; 125 g ai/ha) was 95 and the “Plant response rating, Waterhemp” value ([4]; 250 g ai/ha) was 100. For the same molecule, the “Plant response rating, Waterhemp” value ([4]; 500 g ai/ha) was 100, the “Plant response rating, Pigweed, Palmer” value ([5]; 31 g ai/ha) was 80 and the “Plant response rating, Pigweed, Palmer” value ([5]; 62 g ai/ha) was 80. The “Plant response rating, Pigweed, Palmer” value ([5]; 125 g ai/ha) was 95, the “Plant response rating, Pigweed, Palmer” value ([5]; 250 g ai/ha) was 95 and the “Plant response rating, Pigweed, Palmer” value ([5]; 500 g ai/ha) was 100. The “Plant response rating, Ryegrass, Italian” value ([6]; 31 g ai/ha) was 0, the “Plant response rating, Ryegrass, Italian” value ([6]; 62 g ai/ha) was 0 and the “Plant response rating, Ryegrass, Italian” value ([6]; 125 g ai/ha) was 0. For the same molecule, the “Plant response rating, Ryegrass, Italian” value ([6]; 250 g ai/ha) was 0, the “Plant response rating, Ryegrass, Italian” value ([6]; 500 g ai/ha) was 0 and the “Plant response rating, Barnyardgrass” value ([7]; 31 g ai/ha) was 0. The “Plant response rating, Barnyardgrass” value ([7]; 62 g ai/ha) was 0, the “Plant response rating, Barnyardgrass” value ([7]; 125 g ai/ha) was 0 and the “Plant response rating, Barnyardgrass” value ([7]; 250 g ai/ha) was 0. For the same molecule, the “Plant response rating, Barnyardgrass” value ([7]; 500 g ai/ha) was 0, the “Plant response rating, Crabgrass, Brazil” value ([8]; 31 g ai/ha) was 0 and the “Plant response rating, Crabgrass, Brazil” value ([8]; 62 g ai/ha) was 0. The “Plant response rating, Crabgrass, Brazil” value ([8]; 125 g ai/ha) was 0, the “Plant response rating, Crabgrass, Brazil” value ([8]; 250 g ai/ha) was 0 and the “Plant response rating, Crabgrass, Brazil” value ([8]; 500 g ai/ha) was 10. The “Plant response rating, Poinsettia, Wild” value ([9]; 31 g ai/ha) was 0, the “Plant response rating, Poinsettia, Wild” value ([9]; 62 g ai/ha) was 0 and the “Plant response rating, Poinsettia, Wild” value ([9]; 125 g ai/ha) was 0. The “Plant response rating, Poinsettia, Wild” value ([9]; 250 g ai/ha) was 0, the “Plant response rating, Poinsettia, Wild” value ([9]; 500 g ai/ha) was 0 and the “Plant response rating, Beggarticks” value ([10]; 31 g ai/ha) was 70. The “Plant response rating, Beggarticks” value ([10]; 62 g ai/ha) was 80, the “Plant response rating, Beggarticks” value ([10]; 125 g ai/ha) was 80 and the “Plant response rating, Beggarticks” value ([10]; 250 g ai/ha) was 95. For the same molecule, the “Plant response rating, Beggarticks” value ([10]; 500 g ai/ha) was 100, the “Plant response rating, Dayflower, VA” value ([11]; 31 g ai/ha) was 0 and the “Plant response rating, Dayflower, VA” value ([11]; 62 g ai/ha) was 0. For the same molecule, the “Plant response rating, Dayflower, VA” value ([11]; 125 g ai/ha) was 0, the “Plant response rating, Dayflower, VA” value ([11]; 250 g ai/ha) was 0 and the “Plant response rating, Dayflower, VA” value ([11]; 500 g ai/ha) was 0.
